Data published in patent US20220000841A1, “INHIBITORS OF METALLO-BETA-LACTAMASES” (CENTRE NATIONAL DE LA RECHERCHE SCIENTIFIQUE, priority 2018, published 2022).

Columns and labels:
VIM-1 = VIM-1 (Pseudomonas aeruginosa, UniProt A0A0F7KYQ8); assay: Enzymatic assay for determination of inhibition constants, reporter substrate method, purified VIM-1; assay type: biochemical; details: isolated MBL, competitive inhibition model;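 further: initial hydrolysis rates of a reporter β-lactam (imipenem, meropenem, cefotaxime or nitrocefin) followed by absorbance change, purified enzyme at 1–70 nM in 50 mM HEPES pH 7.5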
Protocol: (§1) The reaction rate was measured as the variation of absorbance observed upon substrate hydrolysis in a UV-Vis spectrophotometer or microplate reader at a wavelength of 300 nm (imipenem, meropenem), 260 nm (cefotaxime) or 482 nm (nitrocefin) in 50 mM HEPES buffer (pH 7.5) and in the presence of a purified MBL enzyme (such as VIM-1, VIM-2, VIM-4, NDM-1 and IMP-1, at a final concentration ranging 1-70 nM).
(§2) The inhibition constants (Ki) were determined on the basis of a model of competitive inhibition by analyzing the dependence of the ratio v0/vi (v0, hydrolysis velocity in the absence of inhibitor; vi, hydrolysis velocity in the presence of inhibitor) as a function of [I] as already described [Docquier J. D., Lamotte-Brasseur J., Galleni M., Amicosante G., Frère J. M., Rossolini G. M. (2003) J. Antimicrob. […] The slope of the plot of v0/vi vs [I], which corresponds to Km^S/(Km^S+[S])Ki (where Km^S is the Km value of the reporter substrate and [S] its concentration in the reaction mixture) and allowed the calculation of the Ki value. Alternatively, a Dixon plot analysis was carried out, by measuring the initial hydrolysis rates in the presence of variable concentrations of inhibitor and substrate.

VIM-2 = VIM-2 (Escherichia coli, UniProt Q5U7L7); assay: Enzymatic assay for determination of inhibition constants, reporter substrate method, purified VIM-2; assay type: biochemical; details: isolated MBL, competitive inhibition model; read-out: Ki VIM-2;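 further: purified VIM-2 hydrolysing a reporter substrate (imipenem, meropenem, cefotaxime or nitrocefin), reaction rate read as absorbance change, HEPES 50 mM at pH 7.5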
Protocol: as §1, §2

VIM-4 = VIM-4 (Pseudomonas aeruginosa, UniProt Q8KRJ3); assay: Enzymatic assay for determination of inhibition constants, reporter substrate method, purified VIM-4; assay type: biochemical; details: at 100 μM (maximal tested concentration);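 further: purified VIM-4 (1-70 nM) in 50 mM HEPES pH 7.5, reporter substrate hydrolysis rate tracked by absorbance change (nitrocefin 482 nm, imipenem or meropenem 300 nm, cefotaxime 260 nm)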
NDM-1 = NDM-1 (Klebsiella pneumoniae, UniProt C7C422); assay: Enzymatic assay for determination of inhibition constants, reporter substrate method, purified NDM-1; assay type: biochemical; details: for Ki: isolated MBL, competitive inhibition model; for % inhibition NDM-1: at 100 μM (maximal tested concentration);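 on all read-outs here: purified enzyme activity followed as absorbance change from reporter substrate hydrolysis on a UV-Vis spectrophotometer or plate reader, 50 mM HEPES pH 7.5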
Chain of NDM-1 (C7C422 29-270, looked up, species assumed): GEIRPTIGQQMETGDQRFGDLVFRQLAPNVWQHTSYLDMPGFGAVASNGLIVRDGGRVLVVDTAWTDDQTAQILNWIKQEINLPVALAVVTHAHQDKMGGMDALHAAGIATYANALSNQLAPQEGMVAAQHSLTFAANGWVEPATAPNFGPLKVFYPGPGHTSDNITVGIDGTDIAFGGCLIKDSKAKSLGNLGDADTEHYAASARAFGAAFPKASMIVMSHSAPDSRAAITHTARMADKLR
Protocol: as §1, §2

IMP-1 = IMP-1 (Serratia marcescens, UniProt P52699); assay: Enzymatic assay for determination of inhibition constants, reporter substrate method, purified IMP-1; assay type: biochemical; details: for Ki: isolated MBL, competitive inhibition model; for % inhibition IMP-1: at 100 μM (maximal tested concentration);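 on all read-outs here: purified IMP-1 (1-70 nM) hydrolysing a reporter substrate, initial rates followed as absorbance change at 260, 300 or 482 nm in 50 mM HEPES pH 7.5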
Chain of IMP-1 (P52699 19-246, looked up, species assumed): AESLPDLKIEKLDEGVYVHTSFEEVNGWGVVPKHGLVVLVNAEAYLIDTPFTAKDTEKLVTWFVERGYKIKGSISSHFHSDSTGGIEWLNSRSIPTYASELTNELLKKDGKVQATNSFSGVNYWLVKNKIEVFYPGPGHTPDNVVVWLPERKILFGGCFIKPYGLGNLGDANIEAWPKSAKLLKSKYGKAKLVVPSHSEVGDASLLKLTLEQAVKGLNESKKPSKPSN
Protocol: as §1, §2

[1] = test system: K. pneumoniae SI-001 (blaVIM-1+); assay: Broth microdilution MIC of meropenem in absence and presence of MBL inhibitor, SI-001; assay type: cell-based; details: MBL inhibitor fixed at 32 μg/ml, Mueller-Hinton broth, duplicate
Protocol: (§3) This method was performed in agreement with the CLSI recommendations (document M07-A10, 2015, “Methods for Dilution Antimicrobial Susceptibility Tests for Bacteria That Grow Aerobically”).
(§4) MIC values of meropenem (MEM) were determined in duplicate in Mueller-Hinton broth as recommended by CLSI (document M07-A10, 2015), in absence and presence of a fixed concentration of MBL inhibitor (32 μg/ml).

[2] = test system: K. pneumoniae S1-002 (blaVIM-4+); assay: Broth microdilution MIC of meropenem in absence and presence of MBL inhibitor, S1-002; assay type: cell-based; details: MBL inhibitor fixed at 32 μg/ml, Mueller-Hinton broth, duplicate
Protocol: as §3, §4

| SMILES | Ki (VIM-1) | Ki (VIM-2) | % inhibition VIM-4 (VIM-4) | Ki (NDM-1) | Ki (IMP-1) | melting point | % inhibition NDM-1 (NDM-1) | MIC potentiation of meropenem (x.log2 dilutions), K. pneumoniae SI-001 (blaVIM-1+) [1] | MIC potentiation of meropenem (x.log2 dilutions), K. pneumoniae S1-002 (blaVIM-4+) [2] | % inhibition IMP-1 (IMP-1) |
| --- | --- | --- | --- | --- | --- | --- | --- | --- | --- | --- |
| COc1ccc(O)c(-c2n[nH]c(=S)n2CCCC(=O)O)c1 [Compound 18, 4-[3-(2-hydroxy-5-methoxyphenyl)-5-sulfanylidene-4,5-dihydro-1H-1,2,4-triazol-4-yl]butanoic acid] | > 100000 nM | 1000 to 10000 nM | 90% at 100 μM | > 100 µM | > 100 µM | 155 to 156 °C | – | – | – | – |
| O=C(O)CCCn1c(-c2ccc3ccccc3c2)n[nH]c1=S [Compound 19, 4-[3-(naphthalen-2-yl)-5-sulfanylidene-4,5-dihydro-1H-1,2,4-triazol-4-yl]butanoic acid] | > 100000 nM | 1000 to 10000 nM | 75% at 100 μM | > 100 µM | > 100 µM | 220 to 221 °C | – | – | – | – |
| O=C(O)CC(Cn1c(-c2ccccc2)n[nH]c1=S)c1ccc(Cl)cc1 (stereo not drawn) [Compound 21, 3-(4-chlorophenyl)-4-(3-phenyl-5-sulfanylidene-4,5-dihydro-1H-1,2,4-triazol-4-yl)butanoic acid] | > 100000 nM | 1000 to 10000 nM | 95% at 100 μM | > 100 µM | > 100 µM | 153 to 154 °C | – | – | – | – |
| O=C1OC(Cn2c(-c3ccccc3)n[nH]c2=S)c2ccccc21 (stereo not drawn) [Compound 37, 5-Phenyl-4-[(3-phthalideyl)methyl]-2,4-dihydro-1,2,4-triazole-3-thione] | < 1000 nM | > 100000 nM | – | – | > 100 µM | – | 50% at 100 μM | 3 log2 dilutions | 3 log2 dilutions | – |
| O=C(O)c1ccccc1CCn1c(-c2cccc(-c3ccccc3)c2)n[nH]c1=S [Compound 39, 5-(3-Biphenyl)-4-[2-(2-carboxyphenyl)ethyl]-1,2,4-triazole-3-thione] | 1000 to 10000 nM | < 1000 nM | – | > 100 µM | > 100 µM | – | – | 3 log2 dilutions | ≥4 log2 dilutions | – |
| Oc1ccc(CCn2c(-c3cccc(-c4ccccc4)c3)n[nH]c2=S)c(O)c1 [Compound 42, 5-(3-Biphenyl)-4-[2-(2,4-dihydroxyphenyl)ethyl]-1,2,4-triazole-3-thione] | < 1000 nM | 1000 to 10000 nM | – | 10 to 100 µM | > 100 µM | – | – | ≥4 log2 dilutions | ≥4 log2 dilutions | – |
| O=C(O)c1ccccc1CCn1c(-c2cccc(OCCN3CCOCC3)c2)n[nH]c1=S [Compound 62, o-(2-{3-[m-(2-Morpholinoethoxy)phenyl]-5-thioxo-1,4-dihydro-1,2,4-triazol-4-yl}ethyl)benzoic acid] | 1000 to 10000 nM | < 1000 nM | – | > 100 µM | > 100 µM | – | – | 2 log2 dilutions | 3 log2 dilutions | – |
| CN1CCN(CCOc2cccc(-c3n[nH]c(=S)n3CCc3ccccc3C(=O)O)c2)CC1 [Compound 63, o-[2-(3-{m-[2-(4-Methyl-1-piperazinyl)ethoxy]phenyl}-5-thioxo-1,4-dihydro-1,2,4-triazol-4-yl)ethyl]benzoic acid] | 1000 to 10000 nM | < 1000 nM | – | > 100 µM | > 100 µM | – | – | 2 log2 dilutions | 3 log2 dilutions | – |
| Cn1cccc1-c1n[nH]c(=S)n1CCSCc1ccccc1 [Compound 64, 4-[2-(Benzylthio)ethyl]-5-(1-methyl-1H-pyrrol-2-yl)-2,4-dihydro-1,2,4-triazole-3-thione] | < 1000 nM | < 1000 nM | – | – | – | – | 75% at 100 μM | 3 log2 dilutions | ≥4 log2 dilutions | 90% at 100 μM |
| O=C(O)CCSCCn1c(-c2ccccc2)n[nH]c1=S [Compound 66, [2-(3-Phenyl-5-thioxo-1,4-dihydro-1,2,4-triazol-4-yl)ethylthio]propionic acid] | 1000 to 10000 nM | 1000 to 10000 nM | – | – | – | – | 60% at 100 μM | 3 log2 dilutions | ≥4 log2 dilutions | 65% at 100 μM |
| O=C(O)C(CCCn1c(-c2ccccc2)n[nH]c1=S)N(Cc1c[nH]cn1)Cc1c[nH]cn1 (stereo not drawn) [Compound 69, 2-[Bis(1H-imidazol-5-ylmethyl)amino]-5-(3-phenyl-5-sulfanylidene-4,5-dihydro-1H-1,2,4-triazol-4-yl)pentanoic acid] | < 1000 nM | < 1000 nM | – | – | > 100 µM | – | 85% at 100 μM | ≥4 log2 dilutions | ≥4 log2 dilutions | – |
| S=c1[nH]nc(-c2ccccc2)n1CCSc1ccccc1 [Compound 70, 5-Phenyl-4-[2-(phenylthio)ethyl]-2,4-dihydro-1,2,4-triazole-3-thione] | 1000 to 10000 nM | 1000 to 10000 nM | – | 10 to 100 µM | – | – | – | ≥4 log2 dilutions | ≥4 log2 dilutions | 84% at 100 μM |
| Fc1ccccc1CSCCn1c(-c2ccccc2)n[nH]c1=S [Compound 71, 4-[2-(2-Fluorobenzylsulfanyl)ethyl]-3-phenyl-4,5-dihydro-1H-1,2,4-triazole-5-thione] | < 1000 nM | < 1000 nM | – | 10 to 100 µM | – | – | – | ≥4 log2 dilutions | 3 log2 dilutions | 97% at 100 μM |
| Fc1ccc(CSCCn2c(-c3ccccc3)n[nH]c2=S)cc1 [Compound 72, 4-[2-(4-Fluorobenzylsulfanyl)ethyl]-3-phenyl-4,5-dihydro-1H-1,2,4-triazole-5-thione] | 1000 to 10000 nM | < 1000 nM | – | 1 to 10 µM | – | – | – | 1 log2 dilutions | 3 log2 dilutions | 96% at 100 μM |
| Fc1ccc(CSCCn2c(-c3ccccc3)n[nH]c2=S)c(F)c1 [Compound 73, 4-[2-(2,4-Difluorobenzylsulfanyl)ethyl]-3-phenyl-4,5-dihydro-1H-1,2,4-triazole-5-thione] | 1000 to 10000 nM | < 1000 nM | – | 10 to 100 µM | 1 to 10 µM | – | – | 3 log2 dilutions | ≥4 log2 dilutions | – |
| O=[N+]([O-])c1ccc(CSCCn2c(-c3ccccc3)n[nH]c2=S)cc1 [Compound 74, 4-[2-(4-Nitrobenzylsulfanyl)ethyl]-3-phenyl-4,5-dihydro-1H-1,2,4-triazole-5-thione] | < 1000 nM | 1000 to 10000 nM | – | – | – | – | 95% at 100 μM | 3 log2 dilutions | ≥4 log2 dilutions | 92% at 100 μM |
